Assay [1] deals with methicillin-resistant S. aureus (MRSA, ATCC 33591). The assay is described as follows: in vitro antibacterial activity. In kind it is cell-based. The note with it: Staphylococcus aureus, ATCC33591|MRSA, read-out: MIC, MRS.
The subject of assay [2] is Leishmania donovani axenic amastigotes. Briefly: in vitro antileishmanial activity, axenic amastigotes. The note with it: 72 h, read-out: L. donovani IC50, Amastigotes. Type of assay: cell-based.
For assay [3], the system named is intracellular amastigote form of Leishmania. The note with it: cited from earlier work.

≈ marks a conversion by molar mass, not a printed value.

Broadly, the MIC is the least concentration at which growth counts as inhibited. What is called IC50 is the concentration that gives 50% inhibition.

With `Oc1ccc(C(c2c[nH]c3ccc(I)cc23)c2c[nH]c3ccc(I)cc23)cc1` [8a, 5,5′-Diiodo-3,3′-(4-hydroxyphenyl-methanediyl)-bisindole], in assay [1], the MIC lay in the range of 2 to 4.3 µM (≈ 1.18 to 2.54 µg/mL). On to `N=C(N)c1ccc(OCCCCCOc2ccc(C(=N)N)cc2)cc1` [Pentamidine], for which the IC50 in assay [2] was determined as 2900 nM.

In the case of N-demethylconodurine, the “activity against the intracellular amastigote form of Leishmania” value in assay [3] is “strong activity”. With conodurine, in assay [3], the “activity against the intracellular amastigote form of Leishmania” value is on record as “strong activity”.

Source of the values: paper PMC3674182 (European journal of medicinal chemistry, 2013).
